Test results reported in US7488491B2, “Use of glycosylceramides as adjuvants for vaccines against infections and cancer” (New York University, priority 2001, dated 2009).
“Also recorded” adds a separate entry of the source.

Assays:
Vα14 NKT cells = details: mice; cited from earlier work
P. yoelii sporozoites [1] = experiment: Anti-sporozoite antibody titers by indirect immunofluorescence assay (IFA); type: in vivo, Plasmodium yoelii; details: γ-spz-immunized BALB/c mice
Procedure: Sera of immunized mice were obtained just before their challenge with sporozoites, and their Ab titers were measured using P. yoelii sporozoites in an indirect immunofluorescence assay (IFA). In brief, P. yoelii sporozoites were placed on multispot glass slides, and air-dried. After 1 hour of incubation with the sera, diluted in PBS containing 1% BSA, the slides were washed with PBS and incubated 1 hour with FITC- labelled affinity purified goat anti-mouse Ab (Kirkegaard & Perry Laboratories, Gaithersburg, Md.). The slides were then washed and mounted in PBS containing 50% (v/v) glycerol and 1% (w/v) Evans blue to reduce bleaching. The highest serum dilution resulting in fluorescence of the sporozoites was considered to be the IFA titer. Measurement of Ab Isotype Level by ELISA.
(§1) The present inventors also determined the titers of anti-sporozoite antibodies using an immunofluorescence assay(IFA) of air-dried P. yoelii sporozoites, as well as the titers of antibody against the circumsporozoite (CS) protein, the major surface antigen of sporozoites, using ELISA. The antibody titers were identical among the groups of γ-spz-immunized mice regardless of whether or not they received α-GalCer (FIG. 1A).

[2] = tested on: circumsporozoite (CS) protein; experiment: Anti-CS antibody titers and isotypes by ELISA; type: in vivo, P. yoelii; details: γ-spz-immunized mice
Procedure: Sera of immunized mice were obtained prior to their challenge with sporozoites, and the levels of CS-specific IgM, IgG1, IgG2a, and IgE isotypes were measured using the Mouse Hybridoma Subtyping Kit (Boehringer Mannheim, Mannheim, Germany). Briefly, plates were coated with […] of B cell epitope (QGPGAP)2 (Charoenvit et al., J. Immunol., 146: 1020-1025, 1991) of the P. yoelii CS protein, blocked with PBS containing 1% BSA, and incubated for 1 hour with 1:5 dilution of sera from immunized and non-immunized mice. The plates were then washed and anti-mouse IgM, IgG1a, IgG2a (Boehringer Mannheim) and IgE (Southern Biotechnology Associates, Inc., Birmingham, Ala.) conjugated to peroxidase were added, followed by incubation with the substratre 2,2-Azino-di-[3-ethylbenzthiazoline sulfonate (6)], according the manufacture's instruction.
as §1

[3] = tested on: nucleoprotein (NP) of the influenza A virus; experiment: CD8+ T cell anti-influenza response after recombinant Sindbis virus expressing NP epitope; type: in vivo; details: suboptimal dose (10^5 p.f.u.) recombinant Sindbis virus expressing epitope TYQRTRALV, with α-GalCer
Source text: In yet another specific embodiment, an antigen of the invention is influenza A virus-specific.

B 16-bearing mice = details: cited from earlier work
[4] = independently of dosage; cited from earlier work
[5] = independently of dosage; cited from earlier work; remark: listed apart in the source
P. yoeli = details: α-GalCer alone, cited from earlier work
P. berghei = details: mice; α-GalCer alone; cited from earlier work
[6] = mouse, in vivo; cited from earlier work
[7] = in vivo; cited from earlier work
[8] = tested on: p18-specific CD8+ T cells (p18 protein of HIV); experiment: ELISPOT assay of HIV p18-specific CD8+ T cells from immunized mice; details: mice immunized with CD8+ T cell epitope […] of p18 of HIV
Procedure: An ELISPOT assay was performed to determine the number of CS-specific CD4+ and CD8+ T cells, producing IFN-γ or IL-4 (Miyahira et al., J. Immunol. Methods, 181: 45-54, 1995). Briefly, 96 well nitrocellulose plates (Millipore, Bedford, Mass.) were coated with anti-mouse IFN-γ monoclonal antibodies (mAb), or anti-mouse IL-4 mAb. After overnight incubation at room temperature, the wells were washed repeatedly and blocked with culture medium for 1 hour at 37° C. […] After irradiating the peptide-pulsed target cells, the cells were added to the ELISPOT wells. Untreated target cells were used as negative controls. Serially diluted lymphocytes isolated from the spleen or lymph nodes of immunized mice were co-cultured with 1.5×10^5 target cells in the ELISPOT wells. After incubating the plates 24 h for IFN-γ detection or 48 h for IL-4 detection at 37° C. and 5% CO2, the plates were treated as previously described (Rodrigues et al., J. Immunol., 158: 1268-1274, 1997), and the number of spots corresponding to IFN-γ and IL-4 secreting cells determined.

P. yoelii sporozoites [9] = experiment: Parasite rRNA in the liver after live sporozoite challenge of immunized mice (real-time RT-PCR)
P. yoelii sporozoites [10] = experiment: Protection against blood infection (parasitemia in thin blood smears) after challenge with 50 viable sporozoites
Source text: To further assess the adjuvant activity of α-GalCer co-administered with vaccines, parasitemia (i.e., the presence of parasites in the blood) was monitored daily by microscopic examination of thin blood smears. Briefly, BALB/c mice were immunized either intravenously with 1×10^4 γ-spz or subcutaneously with 1×10^7 p.f.u. of AdPyCS, doses which otherwise fail to confer protection against malaria, with or without α-GalCer treatment. Two weeks later, all mice were challenged with 50 viable P. yoelii sporozoites, and determined the occurrence of blood infection by monitoring parasitemia.
To determine the adjuvant effect of α-GalCer on the duration of protection against malaria, parasitemia (i.e., the presence of the parasites in the blood) was monitored daily via microscopic inspection of thin blood smears in two separate experiments. In experiment 1, two groups of mice, one treated with α-GalCer and the other untreated, were immunized with 1×10^4 γ-spz, a dose that fails to confer protection against malaria 2 weeks after immunization. Two weeks later, all mice were challenged with 50 viable P. yoelii sporozoites, and the occurrence of blood infection was determined by monitoring parasitemia. In experiment 2, two groups of mice, one treated with α-GalCer and the other untreated, were immunized with 1×10^5 γ-spz, a dose that induces complete protection 2 weeks after immunization but not 4 weeks after. Four weeks later, these immunized mice, as well as naive controls were challenged with 50 live sporozoites, and the course of infection was determined as described above.

[11] = BALB/c mice, 2 μg α-GalCer, 1×10^4 γ-spz i.v.
[12] = BALB/c mice, i.v. 1 × 10^4 γ-spz or s.c. 1 × 10^7 p.f.u. AdPyCS, with or without α-GalCer, challenge with 50 viable P. yoelii sporozoites two weeks later

CCCCCCCCCCCCCCCCCCCCCC[C@@H](O)C(=O)N[C@@H](COC1OC(CO)C(O)C(O)C1OC1OC(CO)C(O)C(O)C1O)[C@H](O)[C@H](O)CCCCCCCCCCCCCC (stereo partly drawn) [Galα1-2Galα1-1′Cer, (2S,3S,4R)-2-amino-1-O-(α-D-glucopyranosyl-(1-2)-α-D-galactopyranosyl)-N-[(R)-2-hydroxytetracosanoyl]-1,3,4-octadecanetriol]
proliferation of Vα14 NKT cells, compared with α-GalCer (Vα14 NKT cells): stimulate proliferation of Vα14 NKT cells in mice, although with lower efficiency

CCCCCCCCCCCCCCCCCCCCCCCCCC(=O)N[C@@H](COC1OC(COC2OC(CO)C(O)C(O)C2O)C(O)C(O)C1O)[C@H](O)[C@H](O)CCCCCCCCCCCCCC (stereo partly drawn) [Galα1-6Galα1-1′Cer, (2S,3S,4R)-2-amino-1—O-(α-D-galactopyranosyl-(1-6)-α-D-galactopyranosyl)-N-hexacosanoyl-1,3,4-octadecanetriol]
proliferation of Vα14 NKT cells, compared with α-GalCer (Vα14 NKT cells): stimulate proliferation of Vα14 NKT cells in mice, although with lower efficiency

CCCCCCCCCCCCCCCCCCCCCC[C@@H](O)C(=O)N[C@@H](COC1OC(CO)C(O)C(OC2OC([C@H](O)CO)C(O)C2O)C1O)[C@H](O)[C@H](O)CCCCCCCCCCCCCC (stereo partly drawn) [Galβ1-3Galα1-1′Cer, (2S,3S,4R)-2-amino-1-O-(β-D-galactofuranosyl-(1-4)-α-D-galactopyranosyl)-N-[(R)-2-hydroxytetracosanoyl]-1,3,4-octadecanetriol]
proliferation of Vα14 NKT cells, compared with α-GalCer (Vα14 NKT cells): stimulate proliferation of Vα14 NKT cells in mice, although with lower efficiency

CCCCCCCCCCCCCCCCCCCCCCCCCC(=O)N[C@@H](CO[C@H]1O[C@H](CO)[C@H](O)[C@H](O)[C@H]1O)[C@H](O)[C@H](O)CCCCCCCCCCCCCC [α-GalCer, (2S,3S,4R)-1—O-(α-D-galactopyranosyl)-2-(N-hexacosanoylamino)-1,3,4-octadecanetriol]
titers of anti-sporozoite antibodies (IFA), α-GalCer vs no α-GalCer (P. yoelii sporozoites [1]): identical
IgE, IgG1, IgG2a or IgM isotype profiles of anti-CS antibodies, α-GalCer-treated vs untreated [2]: no significant differences
titers of antibody against the CS protein (ELISA), α-GalCer vs no α-GalCer [2]: identical
CD8+ T cell anti-influenza response [3]: significantly enhances
mice bearing tumors cured (B 16-bearing mice; 100 μg/kg KRN7000): 60%
antimetastatic activities vs OK432, Lentinan and Mitomycin C (B 16-bearing mice; B 16-bearing mice): stronger antimetastatic activities
toxicity in rodents [4]: does not induce toxicity
toxicity in monkeys [5]: does not induce toxicity
anti-malaria activity (inhibition of intra-hepatocytic stages), P. yoeli (P. yoeli; mice): strong anti-malaria activity
parasite development in the liver of mice lacking either IFN-γ or the IFN-γ receptor (P. yoeli): unable to inhibit parasite development
parasites in the liver, α-GalCer two days prior to challenge with live sporozoites (P. yoeli): completely eliminates the parasites from the liver
protection against malaria in mice lacking either CD1d or Vα14 NKT cells (P. yoeli): failed to protect
anti-malaria activity (inhibition of intra-hepatocytic stages), P. berghei (P. berghei): strong anti-malaria activity
liver enzyme activities [6]: transient elevation of liver enzyme activities
complications in human trials [7]: without a notable complication
level of HIV-specific CD8+ T cell response vs immunized without α-GalCer [8]: ~3 times
parasite load in the livers, times smaller than with γ-spz alone (P. yoelii sporozoites [9]; BALB/c mice, 2 μg α-GalCer with 1×10^4 γ-spz i.v., challenge 1×10^4 live sporozoites two weeks later): 10 times
level of protective anti-malaria immunity, α-GalCer on the same day as γ-spz (P. yoelii sporozoites [9]; [11]): highest level of protective anti-malaria immunity
level of protective immunity, α-GalCer two days after γ-spz immunization (P. yoelii sporozoites [9]; [11]): did not significantly enhance
protective immunity, α-GalCer two days prior to γ-spz immunization (P. yoelii sporozoites [9]; [11]): completely abolished; also recorded: almost completely abolishes
protection augmented relative to control, AdPyCS (P. yoelii sporozoites [9]; BALB/c mice, s.c. sub-optimal dose AdPyCS with α-GalCer same day): ~10 times
protection enhanced, SIN(Mal) (P. yoelii sporozoites [9]; BALB/c mice, s.c. sub-optimal dose SIN(Mal) with α-GalCer same day): 3 times
γ-spz-induced protective immunity in CD1d-deficient mice (P. yoelii sporozoites [9]; CD1d-deficient mice, BALB/c background, 1×10^4 γ-spz with α-GalCer): failed to enhance
γ-spz-induced protective immunity in Jα281-deficient mice (P. yoelii sporozoites [9]; Jα281-deficient mice (lack Vα14 NKT cells), 1×10^4 γ-spz with α-GalCer): failed to enhance
α-GalCer-treated, sporozoite-immunized mice protected, experiment 1 (P. yoelii sporozoites [10]; 1×10^4 γ-spz, challenge with 50 viable sporozoites two weeks later): nine out of ten
α-GalCer-treated, sporozoite-immunized mice protected, experiment 2 (P. yoelii sporozoites [10]; 1×10^5 γ-spz, challenge with 50 live sporozoites four weeks later): nine out of ten
% protection (no parasitemia) (P. yoelii sporozoites [10]; [12]): 0%
Number of mice protected/number challenged (P. yoelii sporozoites [10]; [12]): 0/30
α-GalCer-treated, γ-spz-immunized mice protected (P. yoelii sporozoites [10]; BALB/c, 1×10^4 γ-spz i.v., challenge 50 viable sporozoites two weeks later): 28 out of 30
protective effect of sub-optimal dose of AdPyCS with α-GalCer (P. yoelii sporozoites [10]; BALB/c, 1×10^7 p.f.u. AdPyCS s.c., challenge 50 viable sporozoites): strongly enhanced
protection by α-GalCer alone (P. yoelii sporozoites [10]; BALB/c, no immunogen, challenge 50 viable sporozoites): failed to protect

CCCCCCCCCCCCCCCCCCCCCCCCCC(=O)N[C@@H](CO[C@H]1O[C@H](CO)[C@@H](O)[C@H](O)[C@H]1O)[C@H](O)[C@H](O)CCCCCCCCCCCCCC [α-GlcCer, (2S,3S,4R)-1—O-(α-D-glucopyranosyl)-N-hexacosanoyl-2-amino-1,3,4-octadecanetriol]
proliferation of Vα14 NKT cells, compared with α-GalCer (Vα14 NKT cells): stimulate proliferation of Vα14 NKT cells in mice, although with lower efficiency
